Each block holds one molecule with its values, some of them ahead of it.
Tests used:
[1] = test system: C. acnes ribotype 5 (strain HL043PA1); test: Minimum inhibitory concentration (MIC) against C. acnes; format: cell-based; details: Cutibacterium acnes; C. acnes ribotype 5 strain HL043PA1, 72 h incubation, OD600, growth inhibited by more than 90%
Protocol: The minimum inhibitory concentrations (MICs) of CA-SA and magnolol against C. acnes were measured and compared with an antibiotic (clindamycin) and non-antibiotic agents (benzoyl peroxide and salicylic acid).
C. acnes ribotype 5 (strain HL043PA1) was cultured in a reinforced Clostridial broth medium (BD Diagnostics, Franklin Lakes, NJ) in an anaerobic environment (37° C., 175 rpm). Thereafter, each sample was dissolved in water or dimethyl sulfoxide (DMSO) and serially diluted two-fold, and 7.5 μL of the resulting solution was added to 142.5 μL of a bacterial suspension containing 7.5×10^5 CFU/mL, and incubated for 72 h. Thereafter, turbidity (OD600) was measured (Synergy 2 Multi-Mode Microplate Reader (BioTek Instrument, Winooski, VT)) to determine the MIC that inhibited bacterial growth by more than 90%.

[2] = test system: stratum corneum (SC); test: Stratum corneum softening, tape stripping test on volunteer's skin; format: in vivo, human; details: magnolol 0.2 mg/ml, 50 μl solution on skin for 3 h, SC protein increase relative to control
Protocol: To evaluate the softening efficacy on the stratum corneum (SC) of CA-SA and magnolol, a tape stripping test was performed on the SC.
After marking an application site on a volunteer's skin in advance, 50 μl of a solution including CA-SA and/or magnolol at the concentration shown in Table 4 was applied, and after three hours the skin surface was wiped to remove any remaining substances. A solution that included none of the evaluated substances was used as a control. A D-squame adhesive tape disk (CuDerm, Dallas, TX) was attached to the test site, and a cylindrical weight was used to apply a pressure of 150 g/cm^2 for three seconds, and then the pressure was removed and the tape was removed from the skin. Three tape strips were obtained from each marked site.
After collecting the tape strips in a polystyrene petri dish (Thermo Fisher), in order to perform keratinolysis quantification, 1 ml of 1 M NaOH was added to each petri dish and the dish was shaken for two hours. Thereafter, 75 μl of the solution was transferred to three wells (96-well plate, Corning), and each was neutralized with an equivalent volume of 1 M HCl. […] After 15 minutes, the optical density at 595 nm (OD 595 nm) was measured using an empty well as a correction value, and the amount of SC protein was quantified using a γ-globulin standard (Bio-Rad). […]

[3] = test system: VEGF; test: Inhibition of VEGF expression induced by C. acnes lysate in HaCaT cells (ELISA); format: cell-based, human; details: magnolol 4 μg/ml, 4 h pretreatment, C. acnes lysate 30 min, vs positive control
Protocol: (§1) A human epidermal keratinocyte cell line (HaCaT cells) was sub-cultured at 37° C. in a humidified atmosphere containing 5% CO2 and 95% air. The medium used was DMEM containing 10% FBS (Gibco; Thermo Fisher, Waltham MA), penicillin (100 U/ml, Gibco), and streptomycin ([…], Gibco). Separately, the acne pathogen C. acnes ribotype 5 (Strain HL043PA1) (1.36×10^9 CFU/ml, OD=1.7) was cultured to prepare a C. acnes lysate. The C. acnes lysate was used to induce the expression of MMP-1 and VEGF in HaCaT cells.
(§2) Thereafter, the C. acnes lysate and the medium were mixed at a mass ratio of 3:7, and the resulting mixture was applied to HaCaT cells for 30 minutes. The supernatant was collected, and the concentrations of MMP-1 and VEGF were measured by enzyme-linked immunosorbent assay (ELISA) (R&D Systems Inc., Minneapolis, MN) using the manufacturer's protocol. […] The experimental group treated only with the C. acnes lysate was set as the positive control group, and the reduction value of the sample treatment group compared to the positive control group was calculated and is shown in Table 3. […]
(§3) Colby Equation: E=(A+B)−(A*B/100); E: predicted value; A: efficacy of active ingredient A; B: efficacy of active ingredient B. When the actual measurement value is greater than the predicted value, it is determined that there is a synergistic effect.

[4] = test system: erythema induced by 1% sodium dodecyl sulfate (SDS); test: Skin erythema recovery after SDS erythema induction (Mexameter erythema index); format: in vivo, human; details: emulsion with magnolol 0.02% by weight, twice a day for 12 days, forearm, vs vehicle application group
Protocol: To evaluate the erythema recovery efficacy, an erythema index was evaluated before erythema induction, after erythema induction, and 12 days after product use in nine volunteers aged 25 to 35 years. Erythema was induced by applying 1% sodium dodecyl sulfate (SDS) dilution to the forearm for 24 hours, and an emulsion comprising CA-SA 5% by weight of, an emulsion comprising magnolol 0.02% by weight of, an emulsion comprising 5% CA-SA and 0.02% magnolol by weight, and an emulsion containing neither CA-SA nor magnolol (vehicle) was repeatedly applied to the same area twice a day, in the morning and evening, for 12 days.
The erythema index was measured using a Mexameter (MX 18, Courage+Khazaka electronic GmbH, Germany). The erythema index recovery rate was calculated using the following formula, and the effect was compared in terms of the percentage value increase in the erythema index recovery rate of the emulsion application group including each sample relative to the erythema index recovery rate of the vehicle application group (relative recovery rate).
In order to confirm the synergistic effect of CA-SA and magnolol, the predicted values (Colby values) and the actual measurement values were compared using the Colby Equation in the same manner as in Experimental Example 3, and the results are shown in Table 5.

[5] = test system: MMP-1; test: Inhibition of MMP-1 expression induced by C. acnes lysate in HaCaT cells (ELISA); format: cell-based, human; details: magnolol 4 μg/ml, 4 h pretreatment, C. acnes lysate 30 min, vs positive control
Protocol: as §1, §2, §3

[6] = test system: SZ95 cells; test: Lipid production inhibition in testosterone-treated SZ95 cells (Nile red); format: cell-based; details: magnolol 0.5 μg/ml, 48 h, vs positive control
Protocol: It was evaluated whether CA-SA and/or magnolol could control sebum secretion by inhibiting lipid production.
SZ95 cells, which are […] sebaceous cells, were cultured and maintained in a humidified atmosphere containing 5% CO2 and 95% air at 37° C. The medium used was Dulbecco's Modified Eagle Medium (DMEM)/Ham's F12 medium (Gibco) supplemented with 10% fetal bovine serum (FBS) and 5 ng/ml recombinant human epidermal growth factor (Invitrogen; Thermo Fisher, Waltham MA). After performing sub-confluent culture, cells were harvested with 0.05% trypsin-ethylenediaminetetraacetic acid (EDTA) (Gibco) and passaged, and cells obtained from the second passage were used.
The cells were seeded at 1×10^5 cells per well in a 24-well plate (Greiner, Frickenhausen, Germany) and cultured at 37° C. and 5% CO2 for 24 h. Thereafter, the cells were treated with 2×10^−8 M testosterone for 24 h to stimulate lipid production. […]
The well plate was covered with aluminum foil to block light, and fluorescence was measured at Ex/Em=550/580 nm using a microplate reader (BioTek Instruments, Inc.). The percentage value of the absolute fluorescence unit compared to the negative control group was used as the result value. Thereafter, the reduction value of the sample treatment group compared to the positive control group was calculated and is shown in Table 2.

MIC [1]: 2500 µg/mL
SMILES: O=C(OOC(=O)c1ccccc1)c1ccccc1 [Benzoyl peroxide, benzoyl peroxide]

MIC [1]: 156 µg/mL
SMILES: CCC[C@@H]1C[C@@H](C(=O)N[C@@H]([C@H]2O[C@H](SC)[C@H](O)[C@@H](O)[C@H]2O)[C@H](C)Cl)N(C)C1 [Clindamycin, clindamycin]

MIC [1]: 4000 to 8000 µg/mL
SMILES: O=C(O)c1ccccc1O [Salicylic acid, salicylic acid]

SMILES: C=CCc1ccc(O)c(-c2cc(CC=C)ccc2O)c1 [Magnolol, magnolol]
SC exfoliation rate [2]: −22.3% | VEGF reduction value [3]: 21.2% | Relative recovery rate (erythema index) [4]: 16.2% | MMP-1 reduction value [5]: 33.6% | Reduction value (lipid production) [6]: 3.8%

— patent US20260207629A1, “COMPOSITION FOR IMPROVING SKIN COMPRISING CARNITINESALICYLATE AS AN ACTIVE INGREDIENT” (LG H&H CO., LTD., priority 2022, published 2026)
